≈ marks a conversion by molar mass, not a printed value.
What was measured:
Assay type in all cases: functional, organism-based
Zymoseptoria tritici [1] = test: Antifungal activity against azoxystrobin-sensitive Zymoseptoria tritici IPO94269 carrying cytochrome-b G143 allele assessed as fungal growth inhibition after 6 days at 20 degC by microplate without alamar blue assay; details: IPO94269, 144 h
Zymoseptoria tritici [2] = test: Antifungal activity against azoxystrobin-sensitive Zymoseptoria tritici T0403 carrying cytochrome-b G143 allele assessed as fungal growth inhibition after 6 days at 20 degC by microplate without alamar blue assay; details: T0403, 144 h
Zymoseptoria tritici [3] = test: Antifungal activity against azoxystrobin-sensitive Zymoseptoria tritici T0468 carrying cytochrome-b G143 allele assessed as inhibition of spore germination after 2 days at 18 degC by spotting on PDA medium assay; details: T0468, 48 h
Zymoseptoria tritici [4] = test: Antifungal activity against azoxystrobin-sensitive Zymoseptoria tritici T0403 carrying cytochrome-b G143 allele assessed as fungal colony perpendicular diameter changes after 10 days at 18 degC by spotting on PDA medium assay; details: T0403, 240 h
Zymoseptoria tritici [5] = test: Antifungal activity against azoxystrobin-sensitive Zymoseptoria tritici T0209 carrying cytochrome-b G143 allele assessed as fungal growth inhibition after 6 days at 20 degC by microplate without alamar blue assay; details: T0209, 144 h
Zymoseptoria tritici [6] = test: Antifungal activity against azoxystrobin-sensitive Zymoseptoria tritici T0384 carrying cytochrome-b G143 allele assessed as fungal colony perpendicular diameter changes after 10 days at 18 degC by spotting on PDA medium assay; details: T0384, 240 h
Zymoseptoria tritici [7] = test: Antifungal activity against azoxystrobin-sensitive Zymoseptoria tritici T0211 carrying cytochrome-b G143 allele assessed as fungal growth inhibition after 6 days at 20 degC by microplate without alamar blue assay; details: T0211, 144 h
Zymoseptoria tritici [8] = test: Antifungal activity against azoxystrobin-sensitive Zymoseptoria tritici T083 carrying cytochrome-b G143 allele assessed as inhibition of spore germination after 2 days at 18 degC by spotting on PDA medium assay; details: T083, 48 h
Zymoseptoria tritici [9] = test: Antifungal activity against azoxystrobin-resistant Zymoseptoria tritici T0290 carrying cytochrome-b A143 allele assessed as fungal growth inhibition after 6 days at 20 degC by microplate without alamar blue assay; details: T0290, 144 h
Zymoseptoria tritici [10] = test: Antifungal activity against azoxystrobin-sensitive Zymoseptoria tritici T0210 carrying cytochrome-b G143 allele assessed as fungal growth inhibition after 6 days at 20 degC by microplate without alamar blue assay; details: T0210, 144 h
Zymoseptoria tritici [11] = test: Antifungal activity against azoxystrobin-resistant Zymoseptoria tritici T0242 carrying cytochrome-b A143 allele assessed as inhibition of spore germination after 2 days at 18 degC by spotting on PDA medium assay; details: T0242, 48 h
Zymoseptoria tritici [12] = test: Antifungal activity against azoxystrobin-sensitive Zymoseptoria tritici T0473 carrying cytochrome-b G143 allele assessed as inhibition of spore germination after 2 days at 18 degC by spotting on PDA medium assay; details: T0473, 48 h
Zymoseptoria tritici [13] = test: Antifungal activity against azoxystrobin-sensitive Zymoseptoria tritici T0471 carrying cytochrome-b G143 allele assessed as fungal growth inhibition after 6 days at 20 degC by microplate without alamar blue assay; details: T0471, 144 h
Zymoseptoria tritici [14] = test: Antifungal activity against azoxystrobin-resistant Zymoseptoria tritici T0262 carrying cytochrome-b A143 allele assessed as inhibition of spore germination after 2 days at 18 degC by spotting on PDA medium assay; details: T0262, 48 h
Zymoseptoria tritici [15] = test: Antifungal activity against azoxystrobin-sensitive Zymoseptoria tritici T083 carrying cytochrome-b G143 allele assessed as fungal growth inhibition after 6 days at 20 degC by microplate without alamar blue assay; details: T083, 144 h
Zymoseptoria tritici [16] = test: Antifungal activity against azoxystrobin-sensitive Zymoseptoria tritici T021 carrying cytochrome-b G143 allele assessed as inhibition of spore germination after 2 days at 18 degC by spotting on PDA medium assay; details: T021, 48 h
Zymoseptoria tritici [17] = test: Antifungal activity against azoxystrobin-sensitive Zymoseptoria tritici T0466 carrying cytochrome-b G143 allele assessed as fungal growth inhibition after 6 days at 20 degC by microplate without alamar blue assay; details: T0466, 144 h
Zymoseptoria tritici [18] = test: Antifungal activity against azoxystrobin-resistant Zymoseptoria tritici T049 carrying cytochrome-b A143 allele assessed as inhibition of spore germination after 2 days at 18 degC by spotting on PDA medium assay; details: T049, 48 h
Zymoseptoria tritici [19] = test: Antifungal activity against azoxystrobin-resistant Zymoseptoria tritici T0254 carrying cytochrome-b A143 allele assessed as inhibition of spore germination after 2 days at 18 degC by spotting on PDA medium assay; details: T0254, 48 h
Zymoseptoria tritici [20] = test: Antifungal activity against azoxystrobin-resistant Zymoseptoria tritici T0254 carrying cytochrome-b A143 allele assessed as fungal colony perpendicular diameter changes after 10 days at 18 degC by spotting on PDA medium assay; details: T0254, 240 h
Zymoseptoria tritici [21] = test: Antifungal activity against azoxystrobin-sensitive Zymoseptoria tritici T0468 carrying cytochrome-b G143 allele assessed as fungal colony perpendicular diameter changes after 10 days at 18 degC by spotting on PDA medium assay; details: T0468, 240 h
Zymoseptoria tritici [22] = test: Antifungal activity against azoxystrobin-sensitive Zymoseptoria tritici T0214 carrying cytochrome-b G143 allele assessed as inhibition of spore germination after 2 days at 18 degC by spotting on PDA medium assay; details: T0214, 48 h
Zymoseptoria tritici [23] = test: Antifungal activity against azoxystrobin-sensitive Zymoseptoria tritici T0470 carrying cytochrome-b G143 allele assessed as inhibition of spore germination after 2 days at 18 degC by spotting on PDA medium assay; details: T0470, 48 h
Zymoseptoria tritici [24] = test: Antifungal activity against azoxystrobin-sensitive Zymoseptoria tritici T0213 carrying cytochrome-b G143 allele assessed as fungal colony perpendicular diameter changes after 10 days at 18 degC by spotting on PDA medium assay; details: T0213, 240 h
Zymoseptoria tritici [25] = test: Antifungal activity against azoxystrobin-resistant Zymoseptoria tritici T032 carrying cytochrome-b A143 allele assessed as fungal colony perpendicular diameter changes after 10 days at 18 degC by spotting on PDA medium assay; details: T032, 240 h
Zymoseptoria tritici [26] = test: Antifungal activity against azoxystrobin-resistant Zymoseptoria tritici T0451 carrying cytochrome-b A143 allele assessed as inhibition of spore germination after 2 days at 18 degC by spotting on PDA medium assay; details: T0451, 48 h
Zymoseptoria tritici [27] = test: Antifungal activity against azoxystrobin-resistant Zymoseptoria tritici T0290 carrying cytochrome-b A143 allele assessed as fungal colony perpendicular diameter changes after 10 days at 18 degC by spotting on PDA medium assay; details: T0290, 240 h
Zymoseptoria tritici [28] = test: Antifungal activity against azoxystrobin-sensitive Zymoseptoria tritici T0464 carrying cytochrome-b G143 allele assessed as fungal colony perpendicular diameter changes after 10 days at 18 degC by spotting on PDA medium assay; details: T0464, 240 h
Zymoseptoria tritici [29] = test: Antifungal activity against azoxystrobin-resistant Zymoseptoria tritici T049 carrying cytochrome-b A143 allele assessed as fungal growth inhibition after 6 days at 20 degC by microplate without alamar blue assay; details: T049, 144 h
Zymoseptoria tritici [30] = test: Antifungal activity against azoxystrobin-sensitive Zymoseptoria tritici T021 carrying cytochrome-b G143 allele assessed as fungal colony perpendicular diameter changes after 10 days at 18 degC by spotting on PDA medium assay; details: T021, 240 h

For CO/C=C(/C(=O)OC)c1ccccc1Oc1cc(Oc2ccccc2C#N)ncn1 [AZOXYSTROBIN], the IC50 (Zymoseptoria tritici [1]) was 0.03 µg/mL (≈ 0.0744 µM), the IC50 (Zymoseptoria tritici [2]) was 9.9 µg/mL (≈ 24.5 µM) and the IC50 (Zymoseptoria tritici [3]) was 0.25 µg/mL (≈ 0.62 µM). It also gave an IC50 (Zymoseptoria tritici [4]) of 0.12 µg/mL (≈ 0.297 µM), an IC50 (Zymoseptoria tritici [5]) of 0.01 µg/mL (≈ 0.0248 µM) and an IC50 (Zymoseptoria tritici [6]) of 0.33 µg/mL (≈ 0.818 µM). It also gave an IC50 (Zymoseptoria tritici [7]) of 0.02 µg/mL (≈ 0.0496 µM), an IC50 (Zymoseptoria tritici [8]) of 0.08 µg/mL (≈ 0.198 µM) and an IC50 (Zymoseptoria tritici [9]) of over 100 µg/mL. The IC50 (Zymoseptoria tritici [10]) was 0.03 µg/mL (≈ 0.0744 µM), the IC50 (Zymoseptoria tritici [11]) was 18.4 µg/mL (≈ 45.7 µM) and the IC50 (Zymoseptoria tritici [12]) was 0.05 µg/mL (≈ 0.124 µM). For the same compound, the IC50 (Zymoseptoria tritici [13]) was 0.05 µg/mL (≈ 0.124 µM), the IC50 (Zymoseptoria tritici [14]) was over 100 µg/mL and the IC50 (Zymoseptoria tritici [15]) was 0.5 µg/mL (≈ 1.24 µM). For the same compound, the IC50 (Zymoseptoria tritici [16]) was 0.21 µg/mL (≈ 0.521 µM), the IC50 (Zymoseptoria tritici [17]) was under 0.01 µg/mL and the IC50 (Zymoseptoria tritici [18]) was 11.6 µg/mL (≈ 28.7 µM). It also gave an IC50 (Zymoseptoria tritici [19]) of 7.17 µg/mL (≈ 17.8 µM), an IC50 (Zymoseptoria tritici [20]) of 10.8 µg/mL (≈ 26.8 µM) and an IC50 (Zymoseptoria tritici [21]) of 0.23 µg/mL (≈ 0.57 µM). It also gave an IC50 (Zymoseptoria tritici [22]) of 0.03 µg/mL (≈ 0.0744 µM), an IC50 (Zymoseptoria tritici [23]) of 0.02 µg/mL (≈ 0.0496 µM) and an IC50 (Zymoseptoria tritici [24]) of 0.11 µg/mL (≈ 0.273 µM). The IC50 (Zymoseptoria tritici [25]) was 37.8 µg/mL (≈ 93.8 µM), the IC50 (Zymoseptoria tritici [26]) was 29.6 µg/mL (≈ 73.3 µM) and the IC50 (Zymoseptoria tritici [27]) was 11.2 µg/mL (≈ 27.7 µM). For the same compound, the IC50 (Zymoseptoria tritici [28]) was 0.25 µg/mL (≈ 0.62 µM), the IC50 (Zymoseptoria tritici [29]) was over 100 µg/mL and the IC50 (Zymoseptoria tritici [30]) was 0.11 µg/mL (≈ 0.273 µM).
